Like-named read-outs stand apart in the source and are kept apart here. Positions of bridges follow the written chain, without caps; N, C: chain ends. Residues, ends and D or L forms follow the SMILES beside them.
Target: hNav1.7 (Homo sapiens, UniProt Q15858)
Test: cell-based

Chain of hNav1.7 (Q15858 whole entry, looked up): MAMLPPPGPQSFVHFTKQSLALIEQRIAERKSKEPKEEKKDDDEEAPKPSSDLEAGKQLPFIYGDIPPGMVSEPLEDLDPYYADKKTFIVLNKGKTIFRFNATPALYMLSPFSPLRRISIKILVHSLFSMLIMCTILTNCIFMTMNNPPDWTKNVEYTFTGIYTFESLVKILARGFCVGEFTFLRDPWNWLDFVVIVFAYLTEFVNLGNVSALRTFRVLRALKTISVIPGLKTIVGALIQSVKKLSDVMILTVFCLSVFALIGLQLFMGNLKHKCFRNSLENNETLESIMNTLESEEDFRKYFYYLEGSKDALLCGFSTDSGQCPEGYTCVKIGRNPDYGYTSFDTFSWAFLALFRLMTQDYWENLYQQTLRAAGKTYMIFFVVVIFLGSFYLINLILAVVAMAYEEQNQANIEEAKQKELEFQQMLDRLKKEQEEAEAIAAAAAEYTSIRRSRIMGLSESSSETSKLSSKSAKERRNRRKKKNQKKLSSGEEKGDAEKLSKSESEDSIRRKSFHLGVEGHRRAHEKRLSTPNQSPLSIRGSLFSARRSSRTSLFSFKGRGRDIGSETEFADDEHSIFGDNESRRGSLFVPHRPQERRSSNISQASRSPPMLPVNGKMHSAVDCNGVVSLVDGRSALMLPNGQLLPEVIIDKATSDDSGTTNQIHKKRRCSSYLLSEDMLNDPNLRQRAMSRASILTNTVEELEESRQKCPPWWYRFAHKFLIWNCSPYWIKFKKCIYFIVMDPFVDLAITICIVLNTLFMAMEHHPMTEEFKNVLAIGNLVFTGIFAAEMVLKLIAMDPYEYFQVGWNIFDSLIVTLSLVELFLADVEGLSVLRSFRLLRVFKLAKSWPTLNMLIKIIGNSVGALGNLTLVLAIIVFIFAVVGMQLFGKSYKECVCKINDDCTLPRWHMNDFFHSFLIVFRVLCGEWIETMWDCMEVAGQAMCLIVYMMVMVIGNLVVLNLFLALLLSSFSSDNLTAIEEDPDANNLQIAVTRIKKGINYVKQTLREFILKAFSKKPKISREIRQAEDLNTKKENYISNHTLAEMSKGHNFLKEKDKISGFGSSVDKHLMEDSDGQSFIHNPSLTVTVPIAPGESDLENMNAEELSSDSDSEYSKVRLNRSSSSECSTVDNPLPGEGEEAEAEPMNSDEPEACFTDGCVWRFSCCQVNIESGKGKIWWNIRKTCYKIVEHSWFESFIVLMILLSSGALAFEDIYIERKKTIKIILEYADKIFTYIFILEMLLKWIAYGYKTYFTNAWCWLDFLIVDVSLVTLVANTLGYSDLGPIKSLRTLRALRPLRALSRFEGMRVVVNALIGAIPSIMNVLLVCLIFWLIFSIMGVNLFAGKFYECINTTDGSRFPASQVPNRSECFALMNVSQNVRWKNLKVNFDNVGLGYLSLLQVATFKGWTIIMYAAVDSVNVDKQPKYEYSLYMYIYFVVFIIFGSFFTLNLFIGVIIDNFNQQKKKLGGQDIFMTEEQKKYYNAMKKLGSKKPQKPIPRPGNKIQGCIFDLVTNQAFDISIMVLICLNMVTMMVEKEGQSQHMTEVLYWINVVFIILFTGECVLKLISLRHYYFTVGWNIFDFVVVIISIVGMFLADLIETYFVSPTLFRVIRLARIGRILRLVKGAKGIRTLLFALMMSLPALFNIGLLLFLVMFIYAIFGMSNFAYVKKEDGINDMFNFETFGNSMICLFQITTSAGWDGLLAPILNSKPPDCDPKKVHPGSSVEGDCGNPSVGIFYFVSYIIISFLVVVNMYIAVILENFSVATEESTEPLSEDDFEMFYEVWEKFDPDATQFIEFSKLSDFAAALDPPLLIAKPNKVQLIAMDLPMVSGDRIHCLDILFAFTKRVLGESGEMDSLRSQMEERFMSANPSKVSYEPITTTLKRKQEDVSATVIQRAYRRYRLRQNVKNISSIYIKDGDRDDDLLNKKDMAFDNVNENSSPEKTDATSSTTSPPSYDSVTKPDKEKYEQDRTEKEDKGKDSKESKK

SMILES	IC50 (read-out: Nav1.7 Use IC50) [nM]	IC50 (Nav1.7 Use IC50) [nM]
CC[C@H](C)[C@@H]1NC(=O)[C@@H]2CSSC[C@@H]3NC(=O)[C@H](C(C)C)NC(=O)[C@H](CC(C)C)NC(=O)[C@H](CC(N)=O)NC(=O)[C@@H]4CCCN4C(=O)[C@H](CCCNC(=N)N)NC(=O)[C@H](CSSC[C@H](NC(=O)[C@@H](N)CC(=O)O)C(=O)N[C@@H](CC(C)C)C(=O)NCC(=O)N[C@@H](Cc4ccccc4)C(=O)N[C@@H](CCSC)C(=O)N[C@@H](CCCNC(=N)N)C(=O)N[C@@H](CCCCN)C(=O)N2)NC(=O)[C@H](CSSC[C@@H](C(=O)N[C@@H](CCCCN)C(=O)N[C@@H](Cc2ccc(O)cc2)C(=O)N[C@H](C(=O)N[C@@H](Cc2ccccc2)C(N)=O)C(C)C)NC(=O)[C@H](Cc2c[nH]c4ccccc24)NC(=O)[C@H](CCCCN)NC(=O)[C@H](Cc2c[nH]cn2)NC(=O)[C@H](CCCNC(=N)N)NC(=O)[C@H](CCCNC(=N)N)NC(=O)[C@H](CO)NC3=O)NC(=O)[C@H](CCCCN)NC(=O)[C@H](CC(=O)O)NC(=O)[C@H](CC(N)=O)NC(=O)[C@H](CC(=O)O)NC(=O)[C@@H]2CCCN2C1=O [[Arg26]GpTx-1(1-34)] (H-DCLGFMRKCIPDNDKCCRPNLVCSRRHKWCKYVF-NH2; disulfide 2-17, 9-23, 16-30)	5	
CSCC[C@@H]1NC(=O)[C@H](Cc2ccccc2)NC(=O)CNC(=O)[C@H](CC(C)C)NC(=O)[C@@H](NC(=O)[C@@H](N)CC(=O)O)CSSC[C@@H]2NC(=O)[C@@H]3CSSC[C@@H](C(=O)N[C@@H](CCCCN)C(=O)N[C@@H](Cc4ccc(O)cc4)C(=O)N[C@H](C(=O)N[C@@H](Cc4ccccc4)C(N)=O)C(C)C)NC(=O)[C@H](Cc4c[nH]c5ccccc45)NC(=O)[C@H](CCCCN)NC(=O)[C@H](Cc4cnc[nH]4)NC(=O)[C@H]([C@@H](C)O)NC(=O)[C@H](CCCNC(=N)N)NC(=O)[C@H](CO)NC(=O)[C@H](CSSC[C@H](NC(=O)[C@H](CCCCN)NC(=O)[C@H](CCCNC(=N)N)NC1=O)C(=O)N[C@@H](CC(N)=O)C(=O)N1CCC[C@H]1C(=O)N[C@@H](CC(=O)O)C(=O)N[C@@H](CC(N)=O)C(=O)N[C@@H](CC(=O)O)C(=O)N[C@@H](CCCCN)C(=O)N3)NC(=O)[C@H](C(C)C)NC(=O)[C@H](CC(C)C)NC(=O)[C@H](CC(N)=O)NC(=O)[C@@H]1CCCN1C(=O)[C@H](CCCNC(=N)N)NC2=O [[Asn10]GpTx-1(1-34)] (H-DCLGFMRKCNPDNDKCCRPNLVCSRTHKWCKYVF-NH2; disulfide 2-17, 9-23, 16-30)		2
CSCC[C@@H]1NC(=O)[C@H](Cc2ccccc2)NC(=O)CNC(=O)[C@H](CC(C)C)NC(=O)[C@@H](NC(=O)[C@@H](N)CC(=O)O)CSSC[C@@H]2NC(=O)[C@@H]3CSSC[C@@H](C(=O)N[C@@H](CCCCN)C(=O)N[C@@H](Cc4ccc(O)cc4)C(=O)N[C@H](C(=O)N[C@@H](Cc4ccccc4)C(N)=O)C(C)C)NC(=O)[C@H](Cc4c[nH]c5ccccc45)NC(=O)[C@H](CCCCN)NC(=O)[C@H](Cc4cnc[nH]4)NC(=O)[C@H]([C@@H](C)O)NC(=O)[C@H](CCCNC(=N)N)NC(=O)[C@H](CO)NC(=O)[C@H](CSSC[C@H](NC(=O)[C@H](CCCCN)NC(=O)[C@H](CCCNC(=N)N)NC1=O)C(=O)N[C@@H](CC(=O)O)C(=O)N1CCC[C@H]1C(=O)N[C@@H](CC(=O)O)C(=O)N[C@@H](CC(N)=O)C(=O)N[C@@H](CC(=O)O)C(=O)N[C@@H](CCCCN)C(=O)N3)NC(=O)[C@H](C(C)C)NC(=O)[C@H](CC(C)C)NC(=O)[C@H](CC(N)=O)NC(=O)[C@@H]1CCCN1C(=O)[C@H](CCCNC(=N)N)NC2=O [[Asp10]GpTx-1(1-34)] (H-DCLGFMRKCDPDNDKCCRPNLVCSRTHKWCKYVF-NH2; disulfide 2-17, 9-23, 16-30)		3
CC[C@H](C)[C@@H]1NC(=O)[C@@H]2CSSC[C@@H]3NC(=O)[C@H](C(C)C)NC(=O)[C@H](CC(C)C)NC(=O)[C@H](CC(N)=O)NC(=O)[C@@H]4CCCN4C(=O)[C@H](CCCNC(=N)N)NC(=O)[C@H](CSSC[C@H](NC(=O)[C@@H](N)CC(=O)O)C(=O)N[C@@H](CC(C)C)C(=O)NCC(=O)N[C@@H](Cc4ccccc4)C(=O)N[C@@H](CCSC)C(=O)N[C@@H](CCCNC(=N)N)C(=O)N[C@@H](CCCCN)C(=O)N2)NC(=O)[C@H](CSSC[C@@H](C(=O)N[C@@H](CCCCN)C(=O)N[C@@H](Cc2ccc(O)cc2)C(=O)N[C@H](C(=O)N[C@@H](Cc2ccccc2)C(N)=O)C(C)C)NC(=O)[C@H](Cc2c[nH]c4ccccc24)NC(=O)[C@H](CC(=O)O)NC(=O)[C@H](Cc2cnc[nH]2)NC(=O)[C@H]([C@@H](C)O)NC(=O)[C@H](CCCNC(=N)N)NC(=O)[C@H](CO)NC3=O)NC(=O)[C@H](CCCCN)NC(=O)[C@H](CC(=O)O)NC(=O)[C@H](CC(N)=O)NC(=O)[C@H](CC(=O)O)NC(=O)[C@@H]2CCCN2C1=O [[Asp28]GpTx-1(1-34)] (H-DCLGFMRKCIPDNDKCCRPNLVCSRTHDWCKYVF-NH2; disulfide 2-17, 9-23, 16-30)		15
CC[C@H](C)[C@@H]1NC(=O)[C@@H]2CSSC[C@@H]3NC(=O)[C@H](C(C)C)NC(=O)[C@H](CC(C)C)NC(=O)[C@H](CC(N)=O)NC(=O)[C@@H]4CCCN4C(=O)[C@H](CCCNC(=N)N)NC(=O)[C@H](CSSC[C@H](NC(=O)[C@@H](N)CC(=O)O)C(=O)N[C@@H](CC(C)C)C(=O)NCC(=O)N[C@@H](C4CCCCC4)C(=O)N[C@@H](CCSC)C(=O)N[C@@H](CCCNC(=N)N)C(=O)N[C@@H](CCCCN)C(=O)N2)NC(=O)[C@H](CSSC[C@@H](C(=O)N[C@@H](CCCCN)C(=O)N[C@@H](Cc2ccc(O)cc2)C(=O)N[C@H](C(=O)N[C@@H](Cc2ccccc2)C(N)=O)C(C)C)NC(=O)[C@H](Cc2c[nH]c4ccccc24)NC(=O)[C@H](CCCCN)NC(=O)[C@H](Cc2cnc[nH]2)NC(=O)[C@H]([C@@H](C)O)NC(=O)[C@H](CCCNC(=N)N)NC(=O)[C@H](CO)NC3=O)NC(=O)[C@H](CCCCN)NC(=O)[C@H](CC(=O)O)NC(=O)[C@H](CC(N)=O)NC(=O)[C@H](CC(=O)O)NC(=O)[C@@H]2CCCN2C1=O [[Chg5]GpTx-1(1-34)]		7
CC[C@H](C)[C@@H]1NC(=O)[C@@H]2CSSC[C@@H]3NC(=O)[C@H](C(C)C)NC(=O)[C@H](CC(C)C)NC(=O)[C@H](CC(N)=O)NC(=O)[C@@H]4CCCN4C(=O)[C@H](CCCNC(=N)N)NC(=O)[C@H](CSSC[C@H](NC(=O)[C@@H](N)CC(=O)O)C(=O)N[C@@H](CC(C)C)C(=O)NCC(=O)N[C@@H](C4CCCC4)C(=O)N[C@@H](CCSC)C(=O)N[C@@H](CCCNC(=N)N)C(=O)N[C@@H](CCCCN)C(=O)N2)NC(=O)[C@H](CSSC[C@@H](C(=O)N[C@@H](CCCCN)C(=O)N[C@@H](Cc2ccc(O)cc2)C(=O)N[C@H](C(=O)N[C@@H](Cc2ccccc2)C(N)=O)C(C)C)NC(=O)[C@H](Cc2c[nH]c4ccccc24)NC(=O)[C@H](CCCCN)NC(=O)[C@H](Cc2c[nH]cn2)NC(=O)[C@H]([C@@H](C)O)NC(=O)[C@H](CCCNC(=N)N)NC(=O)[C@H](CO)NC3=O)NC(=O)[C@H](CCCCN)NC(=O)[C@H](CC(=O)O)NC(=O)[C@H](CC(N)=O)NC(=O)[C@H](CC(=O)O)NC(=O)[C@@H]2CCCN2C1=O [[Cpg5]GpTx-1(1-34)]	5	
CC[C@H](C)[C@@H]1NC(=O)[C@@H]2CSSC[C@@H]3NC(=O)[C@H](C(C)C)NC(=O)[C@H](CC(C)C)NC(=O)[C@H](CC(N)=O)NC(=O)[C@@H]4CCCN4C(=O)[C@H](CCCNC(=N)N)NC(=O)[C@H](CSSC[C@H](NC(=O)[C@@H](N)CC(=O)O)C(=O)N[C@@H](CC(C)C)C(=O)NCC(=O)N[C@@H](Cc4ccccc4)C(=O)N[C@@H](CCSC)C(=O)N[C@@H](CCCNC(=N)N)C(=O)N[C@@H](CCCCN)C(=O)N2)NC(=O)[C@H](CSSC[C@@H](C(=O)N[C@@H](CCCCN)C(=O)N[C@@H](Cc2ccc(O)cc2)C(=O)N[C@H](C(=O)N[C@@H](Cc2ccccc2)C(N)=O)C(C)C)NC(=O)[C@H](Cc2c[nH]c4ccccc24)NC(=O)[C@H](CCC(N)=O)NC(=O)[C@H](Cc2c[nH]cn2)NC(=O)[C@H]([C@@H](C)O)NC(=O)[C@H](CCCNC(=N)N)NC(=O)[C@H](CO)NC3=O)NC(=O)[C@H](CCCCN)NC(=O)[C@H](CC(=O)O)NC(=O)[C@H](CC(N)=O)NC(=O)[C@H](CC(=O)O)NC(=O)[C@@H]2CCCN2C1=O [[Gln28]GpTx-1(1-34)] (H-DCLGFMRKCIPDNDKCCRPNLVCSRTHQWCKYVF-NH2; disulfide 2-17, 9-23, 16-30)	4	
CSCC[C@@H]1NC(=O)[C@H](Cc2ccccc2)NC(=O)CNC(=O)[C@H](CC(C)C)NC(=O)[C@@H](NC(=O)[C@@H](N)CC(=O)O)CSSC[C@@H]2NC(=O)[C@@H]3CSSC[C@@H](C(=O)N[C@@H](CCCCN)C(=O)N[C@@H](Cc4ccc(O)cc4)C(=O)N[C@H](C(=O)N[C@@H](Cc4ccccc4)C(N)=O)C(C)C)NC(=O)[C@H](Cc4c[nH]c5ccccc45)NC(=O)[C@H](CCCCN)NC(=O)[C@H](Cc4cnc[nH]4)NC(=O)[C@H]([C@@H](C)O)NC(=O)[C@H](CCCNC(=N)N)NC(=O)[C@H](CO)NC(=O)[C@H](CSSC[C@H](NC(=O)[C@H](CCCCN)NC(=O)[C@H](CCCNC(=N)N)NC1=O)C(=O)N[C@@H](CCC(=O)O)C(=O)N1CCC[C@H]1C(=O)N[C@@H](CC(=O)O)C(=O)N[C@@H](CC(N)=O)C(=O)N[C@@H](CC(=O)O)C(=O)N[C@@H](CCCCN)C(=O)N3)NC(=O)[C@H](C(C)C)NC(=O)[C@H](CC(C)C)NC(=O)[C@H](CC(N)=O)NC(=O)[C@@H]1CCCN1C(=O)[C@H](CCCNC(=N)N)NC2=O [[Glu10]GpTx-1(1-34)] (H-DCLGFMRKCEPDNDKCCRPNLVCSRTHKWCKYVF-NH2; disulfide 2-17, 9-23, 16-30)		2

Reference: patent US9340590B2 (priority 2011, dated 2016)
